{"source": "patent US9370506B2", "about": "“Modulators of aldehyde dehydrogenase and methods of use thereof” (The Board of Trustees of the Leland Stanford Junior …, priority 2008, dated 2016)", "key": {"ALDH3": {"target": "T1, ALDH3 (Homo sapiens, UniProt P30838)", "T1 construct": "made in house; host or cells: BL21 E. coli", "T1 sequence (P30838 1-453)": "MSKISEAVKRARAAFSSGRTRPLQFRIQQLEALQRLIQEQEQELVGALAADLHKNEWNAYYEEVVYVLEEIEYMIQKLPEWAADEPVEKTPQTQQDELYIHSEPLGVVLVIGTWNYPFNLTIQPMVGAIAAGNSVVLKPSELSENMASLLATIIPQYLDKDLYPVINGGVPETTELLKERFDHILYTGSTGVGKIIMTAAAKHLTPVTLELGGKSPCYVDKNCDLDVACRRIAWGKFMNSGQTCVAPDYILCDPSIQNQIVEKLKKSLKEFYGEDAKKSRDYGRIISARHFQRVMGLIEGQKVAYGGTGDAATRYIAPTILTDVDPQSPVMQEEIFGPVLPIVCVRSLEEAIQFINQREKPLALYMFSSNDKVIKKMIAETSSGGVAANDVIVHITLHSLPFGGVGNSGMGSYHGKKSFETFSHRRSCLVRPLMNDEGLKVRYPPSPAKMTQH", "experiment": "ALDH3 enzymatic activity, spectrophotometric NAD+ to NADH assay", "format": "biochemical", "details": "acetaldehyde as substrate; FIG. 15", "procedure": "(§1) Reagents for plant-derived compounds safrole, isosafrole, piperine, sesamin, capsaicin were purchased from Sigma-Aldrich Chemicals and dihydromethysticin was purchased from AvaChem. Scientific. Piperine related compounds, Alda-101 to Alda-112, were synthesized by standard organic chemistry. All testing compounds were dissolved in dimethyl-sulfoxide (DMSO) to obtain a stock solution of 20 mM. Different recombinant ALDH isozymes with a His-epitope tag at the N-terminus were constructed, cloned and expressed in BL21 E. coli host cells according published methods (Chen et al., 2008 Science 321:1493). The bacteria were subjected to 0.5 mM IPTG induction for protein expression at 30° C. Purification of the recombinant proteins by affinity nickel columns were carried out using a standard protocol according to manufacturer's instructions (Novagen, Wis., USA).\n(§2) ALDH enzymatic activity was determined spectrophotometrically using purified recombinant protein (15 ug) in the reductive reaction of NAD^+ to NADH at λ340 nm (Rex et al., 1985, Alcohol Clin Exp Res 9: 147). All the assays in the presence of absence of a testing compound were carried out at 25° C. in […] pyrophosphate buffer, pH=9.5, 2.4 mM NAD+ and 10 mM acetaldehyde or phenylacetaldehyde as a substrate."}, "ALDH2 isozyme": {"target": "T2, ALDH2 isozyme (Homo sapiens, UniProt P05091)", "T2 construct": "made in house; host or cells: BL21 E. coli", "T2 sequence (P05091 18-517)": "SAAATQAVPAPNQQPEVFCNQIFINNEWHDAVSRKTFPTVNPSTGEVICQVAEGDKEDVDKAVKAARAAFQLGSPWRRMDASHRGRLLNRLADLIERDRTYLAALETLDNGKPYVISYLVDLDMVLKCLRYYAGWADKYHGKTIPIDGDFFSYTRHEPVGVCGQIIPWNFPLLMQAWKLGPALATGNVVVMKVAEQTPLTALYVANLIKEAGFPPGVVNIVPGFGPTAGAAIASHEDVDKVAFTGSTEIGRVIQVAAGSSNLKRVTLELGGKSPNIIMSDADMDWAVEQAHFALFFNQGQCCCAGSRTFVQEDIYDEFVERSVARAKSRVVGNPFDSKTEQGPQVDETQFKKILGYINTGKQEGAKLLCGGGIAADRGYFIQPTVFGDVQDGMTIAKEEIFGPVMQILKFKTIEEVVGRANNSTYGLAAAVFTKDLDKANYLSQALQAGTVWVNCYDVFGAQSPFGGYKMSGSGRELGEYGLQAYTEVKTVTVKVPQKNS", "experiment": "ALDH2 enzymatic activity, spectrophotometric NAD+ to NADH assay", "format": "biochemical", "details": "40 uM", "procedure": "as §1, §2"}, "C57Bl/6J mice": {"test_system": "C57Bl/6J mice", "experiment": "Radiation dermatitis model, gamma irradiation of skin", "format": "in vivo", "excerpt": "Radiation dermatitis is a painful side effect experienced by human patients undergoing radiotherapy for solid tumors. Radiation dermatitis is believed to be due to acute oxidative injury to the skin, which leads to lipid peroxidation and the accumulation of reactive aldehydes, such as 4-hydrorxynonenal. In this example, Alda-1 is shown to reduce radiation dermatitis by maintaining ALDH activity during exposure to radiation. C57Bl/6J mice were exposed to 6Gy gamma irradiation per day (applied directly to the shaved back area over a period of 5 minutes) in the absence or presence of 200 μl of 3 mM Alda-1 (in 95% ethanol) or […] alone (vehicle control). Alda-1 or ethanol alone was applied topically 5 minutes before and 5 minutes after each radiation treatment for a total of 10 sessions (60 Gy total, 6 Gy/day with a two-day break after 5 sessions). Mice were euthanized and exposed skin was dissected, and either homogenized in Lysis Buffer (for ALDH2 activity assay, FIG. 18) or fixed in 4%-paraformaldehyde (for histological analysis, FIG. 19)."}, "[1]": {"test_system": "SCC VII murine squamous cell carcinoma cells", "experiment": "Tumor radiation therapy model", "format": "in vivo, mice", "details": "topical 200 μl of 3 mM, FIG. 21", "procedure": "In order to determine the impact of Alda-1 on the effectiveness of radiation therapy, C57Bl/6J mice were inoculated subcutaneously with SCC VII murine squamous cell carcinoma cells (5×10^5) and exposed to radiation therapy (250cGy/day) in the absence or presence of Alda-1 (200 μl of 3 mM Alda-1 in 95% ethanol) or ethanol (200 μl of 95% ethanol) applied 5 min before and 5 min after radiation. Tumor volume was measured daily until the tumor reached four times its starting size at treatment onset (Ning et al., 2008, Mol Cancer Therapy 7:1569-78)."}}}
{"smiles": "O=C(NCc1ccc2c(c1)OCO2)c1c(Cl)cccc1Cl", "note": "[Alda-1, N-(1,3-benzodioxol-5-ylmethyl)-2,6-dichlorobenzamide]", "values": [{"measurement": "effect on enzymatic activity of ALDH3 isozyme", "setting": "ALDH3", "result": "does not have any effect"}, {"measurement": "effect of co-incubation on safrole inhibition of ALDH2", "setting": "ALDH2 isozyme; safrole 500 uM & 1000 uM, FIG. 17", "result": "prevented and reversed"}, {"measurement": "effect of co-incubation on safrole inhibition of ALDH2, 15-minute kinetic measurements", "setting": "ALDH2 isozyme; safrole 1000 uM, FIG. 18", "result": "prevented and reversed"}, {"measurement": "ALDH activity in irradiated skin", "setting": "C57Bl/6J mice; topical 3 mM in 95% ethanol, 6Gy gamma irradiation, FIG. 19", "result": "significantly attenuated the inhibition of ALDH"}, {"measurement": "Epidermal thickening after radiation", "setting": "C57Bl/6J mice; topical 3 mM, 5 days exposure to 6Gy irradiation, vs vehicle control, FIG. 20", "result": "significantly reduced"}, {"measurement": "sensitivity of the tumor to radiation treatment (tumor growth)", "setting": "[1]; 250cGy/day, vs ethanol vehicle control", "result": "increased significantly the sensitivity of the tumor to radiation treatment"}, {"measurement": "tumor growth in non-irradiated mice", "setting": "[1]; no radiation, vs ethanol treated mice", "result": "no effect on tumor growth"}]}
